Measured values reported in patent US7208273B2, “Common polymorphism in scn5a implicated in drug-induced cardiac arrhythmia” (University of Utah Research Foundation, priority 2000, dated 2007).

Test system: African-American individuals with SCN5A variant S1103Y
Settings: carriers of SCN5A S1103Y variant; three individuals after amiodarone treatment, one after infusion of brevital; QT prolongation exacerbated in these cases
From the text: To determine the genetic basis for these arrhythmias, individuals with drug-induced torsade de pointes and ventricular fibrillation were screened for mutations in known arrhythmia genes.

SMILES: C=CCC1(C(C)C#CCC)C(=O)N=C([O-])N(C)C1=O.[Na+] (stereo not shown) [brevital]
- arrhythmia after drug treatment: experienced arrhythmia
